Measured values from ChEMBL document CHEMBL1151973, “Rhazinilam and quebrachamine derivatives from Yunnan Kopsia arborea” (J Nat Prod, 2009).

Columns and labels:
A549 = assay: Cytotoxicity against human A549 cells after 96 hrs by microplate reader assay; format: functional, cell-based; conditions: A549, 96 h
HT-29 = assay: Cytotoxicity against human HT-29 cells after 96 hrs by microplate reader assay; format: functional, cell-based; conditions: HT-29, 96 h

Structure (SMILES) | IC50 (A549) | IC50 (HT-29)
CC[C@@]12CCCN(CCc3c([nH]c4ccccc34)CC1)C2 | > 30 µM | 30 µM
CC[C@]12CCCn3c(COC)cc(c31)-c1ccccc1NC(=O)CC2 | 5.38 µM | 4.67 µM
CC[C@]12CCCn3c(CO)cc(c31)-c1ccccc1NC(=O)CC2 | 8.21 µM | 8.89 µM
CCOCc1cc2c3n1CCC[C@]3(CC)CCC(=O)Nc1ccccc1-2 | 7.44 µM | 6.39 µM
CC(=O)O[C@@]12CO[C@@H]1C[C@H](O)[C@@]1(C)C(=O)[C@H](O)C3=C(C)[C@@H](OC(=O)[C@H](O)[C@@H](NC(=O)OC(C)(C)C)c4ccccc4)C[C@@](O)([C@@H](OC(=O)c4ccccc4)[C@H]21)C3(C)C [DOCETAXEL] | 0.000495 µM | 0.000334 µM
CC[C@@]12CCCN(CCc3c(n(COC)c4ccccc34)CC1)C2 [KOPSIYUNNANINE D] | > 30 µM | 30 µM
CC[C@]12CCCn3ccc(c31)-c1ccccc1NC(=O)CC2 [RHAZINILAM] | 0.35 µM | 0.35 µM
